± gives the uncertainty stated by the source.
Experiment: xn = mol fraction of the nth substance listed

CCCC[N+]1(C)CCCC1.N#C[S-] + O
101 kPa
Conditions | viscosity [mPa·s]
298.15 K, x2 = 0.2203 | 68.6 ± 5.8
298.15 K, x2 = 0.5252 | 28.9 ± 1.8
298.15 K, x2 = 0.783 | 10.04 ± 0.63
298.15 K, x2 = 0.8623 | 5.9 ± 0.37
308.15 K, x2 = 0.5252 | 19.9 ± 1.2
308.15 K, x2 = 0.6634 | 12.37 ± 0.77
308.15 K, x2 = 0.8623 | 4.31 ± 0.27
308.15 K, x2 = 0.9657 | 1.36 ± 0.09
318.15 K, x2 = 0.2203 | 31.6 ± 2
318.15 K, x2 = 0.8623 | 3.23 ± 0.2
318.15 K, x2 = 0.9657 | 1.1 ± 0.07
328.15 K, x2 = 0.0853 | 28.9 ± 1.8
328.15 K, x2 = 0.783 | 4.19 ± 0.26
338.15 K, x2 = 0 | 25.3 ± 1.6
338.15 K, x2 = 0.2203 | 17.3 ± 1.1
338.15 K, x2 = 0.783 | 3.27 ± 0.2
338.15 K, x2 = 0.9657 | 0.79 ± 0.051
348.15 K, x2 = 0.2203 | 13.32 ± 0.83
348.15 K, x2 = 0.6634 | 4.42 ± 0.28
348.15 K, x2 = 0.9657 | 0.69 ± 0.044

CCCC[n+]1ccn(C)c1.C[C@H](N)C(=O)[O-] + O
viscosity [mPa·s], 100.3 kPa
Conditions | 288.15 K | 293.15 K | 298.15 K | 303.15 K | 308.15 K | 313.15 K | 318.15 K | 323.15 K | 328.15 K
x1 = 0.0002936 | 1.156 ± 0.016 | 1.017 ± 0.016 | 0.9 ± 0.015 | 0.81 ± 0.015 | 0.726 ± 0.015 | 0.661 ± 0.015 | 0.604 ± 0.015 | 0.554 ± 0.015 | 0.511 ± 0.015
x1 = 0.0003927 | 1.162 ± 0.016 | 1.022 ± 0.016 | 0.907 ± 0.015 | 0.813 ± 0.015 | 0.732 ± 0.015 | 0.664 ± 0.015 | 0.606 ± 0.015 | 0.557 ± 0.015 | 0.513 ± 0.015
x1 = 0.0004989 | 1.167 ± 0.016 | 1.027 ± 0.016 | 0.911 ± 0.015 | 0.817 ± 0.015 | 0.735 ± 0.015 | 0.666 ± 0.015 | 0.608 ± 0.015 | 0.559 ± 0.015 | 0.515 ± 0.015
x1 = 0.0009775 | 1.203 ± 0.016 | 1.057 ± 0.016 | 0.937 ± 0.015 | 0.838 ± 0.015 | 0.755 ± 0.015 | 0.685 ± 0.015 | 0.626 ± 0.015 | 0.573 ± 0.015 | 0.529 ± 0.015
x1 = 0.002927 | 1.361 ± 0.016 | 1.197 ± 0.016 | 1.057 ± 0.016 | 0.939 ± 0.015 | 0.842 ± 0.015 | 0.759 ± 0.015 | 0.688 ± 0.015 | 0.629 ± 0.015 | –
x1 = 0.004981 | 1.513 ± 0.017 | 1.326 ± 0.016 | 1.163 ± 0.016 | 1.028 ± 0.016 | 0.917 ± 0.015 | 0.827 ± 0.015 | 0.749 ± 0.015 | 0.685 ± 0.015 | –
x1 = 0.007048 | 1.658 ± 0.017 | 1.446 ± 0.017 | 1.273 ± 0.016 | 1.119 ± 0.016 | 0.997 ± 0.016 | 0.894 ± 0.015 | 0.806 ± 0.015 | 0.736 ± 0.015 | –
x1 = 0.009016 | 1.821 ± 0.017 | 1.575 ± 0.017 | 1.368 ± 0.016 | 1.209 ± 0.016 | 1.07 ± 0.016 | 0.959 ± 0.015 | 0.867 ± 0.015 | 0.781 ± 0.015 | –
x1 = 0.01103 | 1.957 ± 0.018 | 1.697 ± 0.017 | 1.477 ± 0.017 | 1.301 ± 0.016 | 1.147 ± 0.016 | 1.027 ± 0.016 | 0.929 ± 0.015 | 0.832 ± 0.015 | –
x1 = 0.01317 | 2.101 ± 0.018 | 1.819 ± 0.018 | 1.58 ± 0.017 | 1.38 ± 0.016 | 1.225 ± 0.016 | 1.089 ± 0.016 | 0.986 ± 0.016 | 0.888 ± 0.015 | –
x1 = 0.01511 | 2.246 ± 0.019 | 1.941 ± 0.018 | 1.677 ± 0.017 | 1.469 ± 0.017 | 1.292 ± 0.016 | 1.156 ± 0.016 | 1.037 ± 0.016 | 0.932 ± 0.015 | –
x1 = 0.01781 | 2.459 ± 0.02 | 2.107 ± 0.018 | 1.825 ± 0.018 | 1.598 ± 0.017 | 1.393 ± 0.016 | 1.253 ± 0.016 | 1.115 ± 0.016 | 0.999 ± 0.016 | –

Source: the CheMixHub ionic liquid set
